Data published in US20130131079A1, “FLUFENOXINE DERIVATIVES FOR THE TREATMENT AND PREVENTION OF AMYLOID PATHOLOGIES” (FAES FARMA, S.A., priority 2010, published 2013).
Counter-ions that a name gives are not always drawn. Like-named read-outs stand apart in the source and are kept apart here.

Tests used:
tau phosphorylation = assay: Ability to modify levels of tau phosphorylation in primary culture of cerebellar granule neurons and/or brain cortex (Western Blot, Tau 1, PHF1); type: cell-based, mice; conditions: CGN or brain cortex neurons
Method: a)—Mouse cortex neurons: brains were obtained from 16-18-day old embryos. The two hemispheres, olfactory bulbs and brain stem were separated. The meninges were removed and the cut tissue was transferred to a 50 ml flask. 10 ml HBSS without Ca without Mg (without phenol red) were added. Two further washings with 3 ml HBSS were performed and digestion was performed with Trypsin-DNase at 37° C. The suspension was broken up by passing the material through glass pipettes with different thicknesses. The cells were cut and cultured in Dulbecco's Modified Eagle's medium (DMEM)+10% FCS. After 3 hours the final medium was placed in Neurobasal medium+B27 Supplement+KCl+glutamine+antibiotics.
(§1) b) CGN: Cerebellar granule neurons derived from wild-type or transgenic mice were obtained from 6-day old mice. The basic process was similar to the previous one: obtaining and breaking up the tissue was similar and culturing and maintaining in final media was identical. The cerebellum was broken up by treatment with trypsin-EDTA for about 15-20 min and subsequently cultured in plates treated with Poly-L-Lysine (50 micrograms/m1). The neurons were maintained in a serum-free medium, Neurobasal medium+B27 Supplement+KCl+glutamine+antibiotics.
Ability to Modify Levels of Tau Phosphorylation in Primary Culture of Cerebellar Granule Neurons (CGN) and/or Brain Cortex Derived from Mice (Wild Strain)
The data was obtained in relation to the mean of 3 independent experiments of the relative level of tau-1 in soluble cell extracts obtained from cerebellar granule or brain cortex neurons treated with the indicated compounds. The ability to modify the level of tau phosphorylation in cortex neurons or cerebellar granule of […] was analyzed through Western Blot using specific antibodies in a series of fosfo-epitopes (Tau 1, PHF1) after 1, 2 and 3 incubation hours. Actine was used as reference (indicator of the total mass).

cell line CHO-APP-PS1 = assay: Toxicity and cell viability in cultures of cell line CHO-APP-PS1; type: cell-based, Chinese hamster
Method: The cell viability of different strains was studied in the presence of the compounds of the invention. […] In the toxicity assays, the cells (whether neurons or established lines) were seeded in 24-well plates and exposed to different concentrations of the drug in Dulbecco's Modified Eagle's medium (DMEM)+10% FCS or in the Neurobasal medium+B27 Supplement+KCl+glutamine+antibiotics when primary neurons were used. The treatments were stopped after 24 or 48 hours by fixing the cells with 4% paraformaldehyde for 30 minutes. The fixed cells were stained with 0.2% Coomassie Brilliant blue R-250 in 10% acetic acid/40% methanol for 1 hour at ambient temperature. The stained cells were washed thoroughly with distilled water, and once dried the incorporated dye was extracted with 0.1 N NaOH in 50% methanol. Then it was acidified with 10% trichloroacetic acid and the number of cells was measured in an Elisa reader, with absorbance at 595 nm. DMSO (10 μl/well) was used as a control. […] The medium was collected for 6 hours, and then it was diluted 5 times and analyzed in duplicate using a Biosource ELISA kit (h 1-40 βAmyloid—Ref #KHB3482).

[1] = test system: primary cultures of CGN (cerebellar granule neurons); assay: Toxicity and cell viability in primary cultures of CGN; type: cell-based, mice; conditions: 24 or 48 hours, Coomassie staining, absorbance at 595 nm
Method: as §1
The cell viability of different strains was studied in the presence of the compounds of the invention. […] In the toxicity assays, the cells (whether neurons or established lines) were seeded in 24-well plates and exposed to different concentrations of the drug in Dulbecco's Modified Eagle's medium (DMEM)+10% FCS or in the Neurobasal medium+B27 Supplement+KCl+glutamine+antibiotics when primary neurons were used. The treatments were stopped after 24 or 48 hours by fixing the cells with 4% paraformaldehyde for 30 minutes. The fixed cells were stained with 0.2% Coomassie Brilliant blue R-250 in 10% acetic acid/40% methanol for 1 hour at ambient temperature. […] Then it was acidified with 10% trichloroacetic acid and the number of cells was measured in an Elisa reader, with absorbance at 595 nm. […]

[2] = at 5 and/or 10 micromolar, relative level of tau-1
[3] = relative level of tau-1 in soluble cell extracts, mean of 3 experiments

Row | SMILES | ability to modify the level of tau phosphorylation (tau phosphorylation; [2]) | other results
1 | Clc1ccc(OC(c2ccccc2)C2CCNCC2)cc1Cl (stereo not drawn) [COMPOUND 34] | modify tau phosphorylation | –
2 | Fc1ccc(OC(CC2CCNCC2)c2ccccc2)cc1 (stereo not drawn) [COMPOUND 27] | modify tau phosphorylation | –
3 | Cc1ccc(Cl)cc1OC(c1ccccc1)C1CCNCC1 (stereo not drawn) [COMPOUND 10] | – | ability to modify the level of tau phosphorylation (tau phosphorylation; [3]): modify tau phosphorylation; toxicity (cell viability) (cell line CHO-APP-PS1; cultures of cell line CHO-APP-PS1, 24 or 48 hours, Coomassie staining, absorbance at 595 nm): none of them giving rise to statistically relevant toxicity levels
4 | Fc1cc(COc2ccc3c(c2)OCO3)cc(OC(c2ccccc2)C2CCNCC2)c1 (racemic) [COMPOUND 32, hydrochloride] | modify tau phosphorylation | –
5 | NCCN1CCC(C(Oc2cccc(F)c2)c2ccccc2)CC1 (racemic) [COMPOUND 37, (+/−)-4-[(3-fluorophenoxy)phenylmetyl]piperidin-1-yl]ethylamine oxalate] | modify tau phosphorylation | toxicity (cell viability) [1]: somewhat toxic only at certain concentrations
6 | Fc1ccc(OC(CC2CCNCC2)c2ccc(F)cc2)cc1 (stereo not drawn) [COMPOUND 24] | modify tau phosphorylation | –
7 | Clc1ccc(/C=C(\c2ccccc2)C2CCNCC2)cc1 [COMPOUND 36, (Z)-4-[(1-phenyl)-2-(4-chlorophenyl)ethen-1-yl]piperidine] | modify tau phosphorylation | –
8 | Clc1ccc(C(Oc2cccc3ccccc23)C2CCNCC2)cc1 (racemic) [COMPOUND 31, (+/−)-4-[(Naphthalen-1-oxy)(4-chlorophenyl)methyl]piperidine hemisulphate] | modify tau phosphorylation | toxicity (cell viability) [1]: somewhat toxic only at certain concentrations
9 | FC(F)(F)c1ccccc1OC(c1ccccc1)C1CCNCC1 (stereo not drawn) [COMPOUND 29] | modify tau phosphorylation | –
10 | c1ccc(C(Oc2cccc3ccccc23)C2CCNCC2)cc1 (stereo not drawn) [COMPOUND 35] | modify tau phosphorylation | –
11 | Fc1ccccc1OC(c1ccccc1)C1CCNCC1 (stereo not drawn) [COMPOUND 21] | modify tau phosphorylation | –
12 | FC(F)(F)c1ccc(OC(c2ccccc2)C2CCNCC2)cc1 (stereo not drawn) [COMPOUND 41] | modify tau phosphorylation | –
13 | c1ccc(-c2ccccc2OC(c2ccccc2)C2CCNCC2)cc1 (stereo not drawn) [COMPOUND 40] | modify tau phosphorylation | –
14 | Ic1cccc(OC(c2ccccc2)C2CCNCC2)c1 (stereo not drawn) [COMPOUND 3] | – | ability to modify the level of tau phosphorylation (tau phosphorylation; [3]): modify tau phosphorylation; toxicity (cell viability) (cell line CHO-APP-PS1): none of them giving rise to statistically relevant toxicity levels
